Consider one compound from article PMC5943959, “Potent and Selective Carboxylic Acid Inhibitors of Tumor-Associated Carbonic Anhydrases IX and XII” (Molecules : A Journal of Synthetic Chemistry and Natural …, 2017).

For assay [1], the target named is T1, hCA XII (Homo sapiens, UniProt O43570).
T1 construct: made in house
More on the design: method as in PMID 26121309. The following applies: values measured previously; cited from earlier work.

In a further assay the target is T2, hCA VII (Homo sapiens, UniProt P43166).
T2 construct: made in house
T2 sequence (P43166 whole entry): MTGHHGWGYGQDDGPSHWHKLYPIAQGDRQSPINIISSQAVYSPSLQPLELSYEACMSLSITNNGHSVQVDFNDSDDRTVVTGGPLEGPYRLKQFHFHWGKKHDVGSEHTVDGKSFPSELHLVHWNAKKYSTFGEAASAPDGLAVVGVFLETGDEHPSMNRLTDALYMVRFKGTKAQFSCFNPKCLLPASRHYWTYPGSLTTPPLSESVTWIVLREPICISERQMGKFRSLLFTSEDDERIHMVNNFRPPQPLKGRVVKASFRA
More on the design: method as in PMID 26121309. To be noted: values measured previously; cited from earlier work.

In a further assay the target is T3, hCA II (Homo sapiens, UniProt P00918).
T3 construct: made in house
More on the design: method as in PMID 26121309. The following applies: values measured previously; cited from earlier work.

In assay [2] the test system is chronic myeloid leukemia cells. More on the design: method as in PMID 26121309. The following applies: cited from earlier work.
In the next assay the target is T4, hCA I (Homo sapiens, UniProt P00915).
T4 construct: made in house
T4 sequence (P00915 whole entry): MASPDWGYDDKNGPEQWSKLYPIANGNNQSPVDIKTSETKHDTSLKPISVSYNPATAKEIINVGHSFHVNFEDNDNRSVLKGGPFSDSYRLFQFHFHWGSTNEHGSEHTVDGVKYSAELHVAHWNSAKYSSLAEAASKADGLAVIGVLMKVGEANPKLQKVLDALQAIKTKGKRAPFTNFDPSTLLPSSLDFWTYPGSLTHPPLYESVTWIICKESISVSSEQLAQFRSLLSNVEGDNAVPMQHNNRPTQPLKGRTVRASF
More on the design: method as in PMID 26121309. The following applies: values measured previously; cited from earlier work.

The next assay deals with T5, hCA VA (Homo sapiens, UniProt P35218).
T5 construct: made in house
T5 sequence (P35218 39-305): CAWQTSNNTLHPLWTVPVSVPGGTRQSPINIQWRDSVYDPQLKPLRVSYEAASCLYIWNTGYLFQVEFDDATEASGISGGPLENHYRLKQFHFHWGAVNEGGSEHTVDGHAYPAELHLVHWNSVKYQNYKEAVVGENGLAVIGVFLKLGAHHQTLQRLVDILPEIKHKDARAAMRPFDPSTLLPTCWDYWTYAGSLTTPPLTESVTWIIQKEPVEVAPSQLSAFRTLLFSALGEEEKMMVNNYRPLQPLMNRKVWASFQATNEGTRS
More on the design: method as in PMID 26121309. The following applies: values measured previously; cited from earlier work.

For another assay, the target named is T6, hCA IV (Homo sapiens, UniProt P22748).
T6 construct: made in house
T6 sequence (P22748 19-312): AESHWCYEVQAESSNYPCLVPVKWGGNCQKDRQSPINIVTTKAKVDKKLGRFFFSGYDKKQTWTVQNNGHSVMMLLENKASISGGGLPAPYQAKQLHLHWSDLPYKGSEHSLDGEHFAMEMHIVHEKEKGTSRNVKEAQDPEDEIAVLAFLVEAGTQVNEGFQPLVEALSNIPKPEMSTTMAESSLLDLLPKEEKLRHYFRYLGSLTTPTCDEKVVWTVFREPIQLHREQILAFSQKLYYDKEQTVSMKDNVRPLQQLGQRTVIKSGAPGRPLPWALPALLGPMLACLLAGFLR
On the set-up: method as in PMID 26121309. The following applies: values measured previously; cited from earlier work.

Assay [3] concerns the target T1, hCA XII. As to the kind of experiment: stopped-flow CO2 hydrase assay, hCA XII. The assay is classed as biochemical. The following applies: ratio of Ki values.
Assay [4] addresses T7, hCA IX (Homo sapiens, UniProt Q16790).
T7 construct: made in house
More on the design: method as in PMID 26121309. The following applies: values measured previously; cited from earlier work.

In assay [5] the target is T7, hCA IX. As to the kind of experiment: stopped-flow CO2 hydrase assay, hCA IX. The following applies: ratio of Ki values. The assay is classed as biochemical.

T1 sequence (O43570 25-354): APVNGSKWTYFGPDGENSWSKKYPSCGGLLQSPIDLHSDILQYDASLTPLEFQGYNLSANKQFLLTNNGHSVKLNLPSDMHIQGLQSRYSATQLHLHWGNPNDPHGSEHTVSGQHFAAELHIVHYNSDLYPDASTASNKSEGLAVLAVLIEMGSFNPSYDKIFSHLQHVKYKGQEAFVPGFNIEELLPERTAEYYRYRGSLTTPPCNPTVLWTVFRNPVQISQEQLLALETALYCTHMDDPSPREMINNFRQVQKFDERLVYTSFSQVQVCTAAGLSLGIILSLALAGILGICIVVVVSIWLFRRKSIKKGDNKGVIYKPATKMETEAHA

With `O=C(O)c1cc([N+](=O)[O-])c(NCCc2ccccc2)c([N+](=O)[O-])c1` [GV2-20], the Ki was 9.6 nM on hCA XII [1]; 8.7 nM on hCA VII; 67.3 nM on hCA II; 352 nM at hCA I; 895 nM on hCA VA; 7660 nM on hCA IV. At hCA IX [4], the Ki was 42.3 nM. For the same compound, the antiproliferative effects entry in assay [2] is on record as “antiproliferative effects”. For the same compound, the “Selectivity Index hCA II/hCA XII” value at hCA XII [3] is listed as 7.01. Moreover, the “Selectivity Index hCA II/hCA IX” value on hCA IX [5] was found to be 1.59.
